# Test results taken from US20070093539A1, “N-hydroxy-4-(3-pheyl-5-methyl-isoxazole-4-yl)-benzenesulfonate solvates” (priority 2003, published 2007).
# Key:
# [1] = system: carrageenan-induced foot paw edema; test: Carrageenan-induced rat foot paw edema assay; format: in vivo, male Wistar rats; settings: for ED30 of edema inhibition: p.o.
# Method: The edema was induced in male Wistar rats (140-150 g) by subcutaneous injection of carrageenan (50 μl of 1% suspension) into the right hind paw. The formed inflammation was measured with plethysmometer (Ugo Basile, type: 7150). The treated paw was placed into the plethysmometer (filled with 0.3% additives in 0.5% saline), the level of the inflammation was detected by the volume of the displaced solution. This volume was compared with the initial preinjection paw volume. Level of the inflammation (ml)=volume after CA treatment (ml)−volume before CA treatment (ml) The inflammation induced in treated group was compared to control group (which was given only vehicle). The sample materials and the solvent were dosed per os via gastro-sonde 1 hour before the CA treatment. The volume of the treated limb was measured at 3h and 5h after CA treatments. The change of the inflammation level was calculated as follows: [formula]
# isolated rabbit heart = test: Cardiac effects on the isolated rabbit heart (Langendorff, coronary flow); parameters: species or system New Zealand white rabbits; coronary flow: unit not given here; settings: for coronary flow % changing: versus basic value
# Method: New Zealand white rabbits weighing 1.5-2 kg were used. The animals were exsanguinated and after thoracotomy the hearts were excised and mounted on a Langendorff-type perfusion apparatus. The hearts were perfused via the aorta with oxigenated, thermostated (37° C.) Krebs solution. A constant perfusion pressure of 80 cmH2O was applied. The test compounds were dissolved in the perfusion solution to obtain the requested concentrations.
# The basic value of coronary flow was determined. Afterwards the small amount of compounds were added to perfusion liquid and the perfusion was measured for 30 minutes at every 10 minutes. Afterwards 30 minutes perfusion was performed without compound and the measure was repeated with the medium and high amount of compounds.
# The effects of same concentration of valdecoxib and compound of example 1 were investigated in 4-4 hearts (1, 3 and 10 μM). Valdecoxib had no effect in either concentration. It can clearly be shown that the coronary flow was increased dose dependently. This effect is advantageous in practice of clinical therapy, because the painful arthritic and degenerative joint and bone deformations are emerged rather in old age, when diseases of the vascular system are also frequently encountered, which can conduce to disorder of vascular bed of the heart.
# [2] = system: carrageenan and kaolin induced monoarthritis; test: Carrageenan and kaolin induced monoarthritis model (incapacitance test); format: in vivo, rats; settings: 10 mg/kg p.o.
# Method: The Incapacitance tester is an apparatus for measure the changes of the functional parameters induced of the pain, which can register the bearing on the hind limb, the amount of the moving and the changing of the centre of gravity. Knee-joint of the right-back limb was treated with solution of 100 μl 2% carrageenan and kaolin. During 3-4 hours after the treatment arthritis was emerged in the capsular ligament of the treated limb. This inflammation still exists at 24 hours after the treatment. Because of the pain the animals coddles the treated limbs, thy weign on it less. Change of weight load is measurable with Incapacitance tester device in grams. The incapacitance was calculated as follows: [formula] Analgesic-antiinflammantory compounds could increase the stimulus threshold of the knee-joint, and consequently to improve the functional parameters of the limb. Measure of this can be counted by the decrease of the loading of left leg i.e. in terms of percentage of reversal. [formula] The Incapacitance induced by administration of irritants in left paw was measured at 4 hour after the injection. Afterwards the animals (n=24-32/group) were. orally treated with dose of 10 mg/kg valdecoxib and test compounds. Measurements were done at 1 and 2 hours after the treatments.
substance,measurement,setting,value
N-hydroxi-4-(3-phenyl-5-methyl-isoxazole-4-yl)-benzenesulfonamide monohydrate [example 1],edema inhibition effect %,"[1]; 0.3 mg/kg p.o., 4 hours after treatment",19.5%
same,edema inhibition effect %,"[1]; 0.3 mg/kg p.o., 6 hours after treatment",17.5%
same,edema inhibition effect %,"[1]; 1.0 mg/kg p.o., 4 hours after treatment",25.2%
same,edema inhibition effect %,"[1]; 1.0 mg/kg p.o., 6 hours after treatment",37.2%
same,edema inhibition effect %,"[1]; 3.0 mg/kg p.o., 4 hours after treatment",33.9%
same,edema inhibition effect %,"[1]; 3.0 mg/kg p.o., 6 hours after treatment",40.4%
same,edema inhibition effect %,"[1]; 10.0 mg/kg p.o., 4 hours after treatment",40.7%
same,edema inhibition effect %,"[1]; 10.0 mg/kg p.o., 6 hours after treatment",59.2%
same,ED30 of edema inhibition,[1]; 4 hours after treatment,1.8 mg/kg
same,ED30 of edema inhibition,[1]; 6 hours after treatment,0.8 mg/kg
same,coronary flow,"isolated rabbit heart; 1 μM, 10 minutes of treatment",40.0 ± 3.3
same,coronary flow % changing,"isolated rabbit heart; 1 μM, 10 minutes",16.6%
same,coronary flow,"isolated rabbit heart; 1 μM, 20 minutes of treatment",39.0 ± 3.0
same,coronary flow % changing,"isolated rabbit heart; 1 μM, 20 minutes",13.7%
same,coronary flow,"isolated rabbit heart; 1 μM, 30 minutes of treatment",37.5 ± 2.4
same,coronary flow % changing,"isolated rabbit heart; 1 μM, 30 minutes",9.3%
same,coronary flow,"isolated rabbit heart; 3 μM, 10 minutes of treatment",37.3 ± 2.3
same,coronary flow % changing,"isolated rabbit heart; 3 μM, 10 minutes",24.3%
same,coronary flow,"isolated rabbit heart; 3 μM, 20 minutes of treatment",37.5 ± 1.7
same,coronary flow % changing,"isolated rabbit heart; 3 μM, 20 minutes",25.0%
same,coronary flow,"isolated rabbit heart; 3 μM, 30 minutes of treatment",38.8 ± 1.3
same,coronary flow % changing,"isolated rabbit heart; 3 μM, 30 minutes",26.0%
same,coronary flow,"isolated rabbit heart; 10 μM, 10 minutes of treatment",45.8 ± 2.5
same,coronary flow % changing,"isolated rabbit heart; 10 μM, 10 minutes",63.6%
same,coronary flow,"isolated rabbit heart; 10 μM, 20 minutes of treatment",48.3 ± 4.8
same,coronary flow % changing,"isolated rabbit heart; 10 μM, 20 minutes",72.5%
same,coronary flow,"isolated rabbit heart; 10 μM, 30 minutes of treatment",49.0 ± 4.8
same,coronary flow % changing,"isolated rabbit heart; 10 μM, 30 minutes",75.0%
same,effect on coronary flow (in words),"isolated rabbit heart; 1, 3 and 10 μM, 4-4 hearts",positive effect
same,Analgesic effect (% reversal) after p.o. treatment,[2]; 1 hour,63.2 % reversal
same,Analgesic effect (% reversal) after p.o. treatment,[2]; 2 hours,76.9 % reversal
